This note sets out measurements from patent US8969565B2, “Imidazo[1,2-b]pyridazine-based compounds, compositions comprising them, and methods of their use” (Lexicon Pharmaceuticals, Inc., priority 2012, dated 2015).

The target of assay [1] is T1, AAK1 (Homo sapiens, UniProt Q2M2I8).
T1 construct: HA; expressed in transfected cells; host or cells: HEK293F
The experiment in a line: HEK281 cell-based assay (phospho-mu2 Western blot in transfected HEK293F cells). The settings on record: 3 hours incubation, read-out: CBA IC50. The gist of the method: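 After 3 hours at 37° C. with compound (five 3-fold-spaced concentrations, DMEM+0.5% FBS), transiently transfected HEK293F cells expressing full-length human AAK1 and Flag-tagged mu2 were lysed. mu2 phosphorylation was read by anti-phospho-mu2 immunoblot, normalized against total mu2 by anti-Flag blot.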

The target of assay [2] is T1, AAK1. In words: P81 filter plate assay. It is filed as biochemical. The settings on record: full-length human AAK1, Mu2 substrate.

Each structure is given as a SMILES string.

T1 sequence (Q2M2I8 1-863 isoform Q2M2I8-2): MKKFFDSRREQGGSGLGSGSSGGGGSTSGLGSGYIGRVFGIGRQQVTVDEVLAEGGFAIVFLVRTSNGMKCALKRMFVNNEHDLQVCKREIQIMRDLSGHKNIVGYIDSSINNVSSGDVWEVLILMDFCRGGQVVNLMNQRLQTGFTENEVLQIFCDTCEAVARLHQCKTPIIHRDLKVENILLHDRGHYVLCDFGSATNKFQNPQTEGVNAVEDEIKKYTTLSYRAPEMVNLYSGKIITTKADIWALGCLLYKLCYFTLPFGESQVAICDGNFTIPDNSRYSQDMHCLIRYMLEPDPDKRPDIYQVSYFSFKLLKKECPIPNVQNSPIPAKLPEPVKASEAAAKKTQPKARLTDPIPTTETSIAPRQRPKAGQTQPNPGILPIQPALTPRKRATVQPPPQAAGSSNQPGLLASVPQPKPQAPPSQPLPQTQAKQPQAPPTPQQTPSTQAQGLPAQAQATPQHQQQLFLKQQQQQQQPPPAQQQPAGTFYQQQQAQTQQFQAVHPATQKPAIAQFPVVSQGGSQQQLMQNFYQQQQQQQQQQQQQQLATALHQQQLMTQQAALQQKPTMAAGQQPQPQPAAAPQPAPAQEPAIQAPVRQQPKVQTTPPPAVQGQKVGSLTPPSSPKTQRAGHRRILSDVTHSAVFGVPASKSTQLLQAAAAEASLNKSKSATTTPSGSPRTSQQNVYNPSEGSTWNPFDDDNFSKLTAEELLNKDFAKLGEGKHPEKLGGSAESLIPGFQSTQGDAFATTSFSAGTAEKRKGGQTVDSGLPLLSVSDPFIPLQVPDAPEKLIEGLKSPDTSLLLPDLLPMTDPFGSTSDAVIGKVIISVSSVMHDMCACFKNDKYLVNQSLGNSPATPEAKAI

As to `COc1cccc(-c2cnc3ccc(N4CCN(C(=O)OC(C)C)CC4)nn23)c1F` [isopropyl 4-(3-(2-fluoro-3-methoxyphenyl)imidazo[1,2-b]pyridazin-6-yl)piperazine-1-carboxylate], the figures for the IC50 on AAK1 [1] and against AAK1 [2] were at most 100 nM and at most 10 nM, respectively.

With `CC(C)OC(=O)N1CCN(c2ccc3ncc(-c4ccccc4F)n3n2)CC1` [isopropyl 4-(3-(2-fluorophenyl)imidazo[1,2-b]pyridazin-6-yl)piperazine-1-carboxylate], the IC50 was at most 100 nM on AAK1 [1] and at most 10 nM at AAK1 [2].

For `COc1nc(C)ccc1-c1cnc2ccc(N3CCN(C(=O)OC(C)C)CC3)nn12` [isopropyl 4-(3-(2-methoxy-6-methylpyridin-3-yl)imidazo[1,2-b]pyridazin-6-yl)piperazine-1-carboxylate], the IC50 on AAK1 [1] and against AAK1 [2] was at most 10 nM in each case.

For `COc1ccccc1-c1cnc2ccc(N3CCN(C(=O)OC(C)C)CC3)nn12` [isopropyl 4-(3-(2-methoxyphenyl)imidazo[1,2-b]pyridazin-6-yl)piperazine-1-carboxylate], the half-inhibitory concentration (IC50) on AAK1 [1] and on AAK1 [2] was at most 10 nM each time.

For `COc1ncccc1-c1cnc2ccc(N3CCN(C(=O)OC(C)C)CC3)nn12` [isopropyl 4-(3-(2-methoxypyridin-3-yl)imidazo[1,2-b]pyridazin-6-yl)piperazine-1-carboxylate], the IC50 at AAK1 [1] and against AAK1 [2] was at most 10 nM each time.

As to `COc1cc(-c2cnc3ccc(N4CCN(C(=O)OC(C)C)CC4)nn23)ccn1` [isopropyl 4-(3-(2-methoxypyridin-4-yl)imidazo[1,2-b]pyridazin-6-yl)piperazine-1-carboxylate], the 50% inhibitory concentration (IC50) was at most 100 nM at AAK1 [1] and at most 10 nM against AAK1 [2].

With `CC(C)OC(=O)N1CCN(c2ccc3ncc(-c4ccc[nH]c4=O)n3n2)CC1` [isopropyl 4-(3-(2-oxo-1,2-dihydropyridin-3-yl)imidazo[1,2-b]pyridazin-6-yl)piperazine-1-carboxylate], the half-maximal inhibitory concentration (IC50) on AAK1 [1] was at most 100 nM; at AAK1 [2], at most 10 nM.

Turning to `CC(C)OC(=O)N1CCN(c2ccc3ncc(-c4cccc(Cl)c4)n3n2)CC1` [isopropyl 4-(3-(3-chlorophenyl)imidazo[1,2-b]pyridazin-6-yl)piperazine-1-carboxylate], the 50% inhibitory concentration (IC50) on AAK1 [1] was at most 1000 nM; against AAK1 [2], at most 10 nM.

Take `COc1cccc(-c2cnc3ccc(N4CCN(C(=O)OC(C)C)CC4)nn23)c1` [isopropyl 4-(3-(3-methoxyphenyl)imidazo[1,2-b]pyridazin-6-yl)piperazine-1-carboxylate]: the results for the IC50 on AAK1 [1] and on AAK1 [2] were at most 100 nM and at most 10 nM, respectively.

As for `CC(C)OC(=O)N1CCN(c2ccc3ncc(-c4ccc(CN)cc4)n3n2)CC1` [isopropyl 4-(3-(4-(aminomethyl)phenyl)imidazo[1,2-b]pyridazin-6-yl)piperazine-1-carboxylate], the IC50 at AAK1 [1] and on AAK1 [2] was at most 10 nM each time.

In the case of `COc1cc(C)c(F)cc1-c1cnc2ccc(N3CCN(C(=O)OC(C)C)CC3)nn12` [isopropyl 4-(3-(5-fluoro-2-methoxy-4-methylphenyl)imidazo[1,2-b]pyridazin-6-yl)piperazine-1-carboxylate], the IC50 on AAK1 [1] and on AAK1 [2] was at most 10 nM each time.

For the compound `COc1ccc(F)cc1-c1cnc2ccc(N3CCN(C(=O)OC(C)C)CC3)nn12` [isopropyl 4-(3-(5-fluoro-2-methoxyphenyl)imidazo[1,2-b]pyridazin-6-yl)piperazine-1-carboxylate], the concentration for half-maximal inhibition (IC50) at AAK1 [1] and against AAK1 [2] was at most 10 nM in each case.

For `COc1ncc(F)cc1-c1cnc2ccc(N3CCN(C(=O)OC(C)C)CC3)nn12` [isopropyl 4-(3-(5-fluoro-2-methoxypyridin-3-yl)imidazo[1,2-b]pyridazin-6-yl)piperazine-1-carboxylate], the 50% inhibitory concentration (IC50) at AAK1 [1] and against AAK1 [2] was at most 10 nM in each case.

`O=C(N1CCCCC1)N1CCN(c2ccc3ncc(-c4ccccn4)n3n2)CC1` [piperidin-1-yl(4-(3-(pyridin-2-yl)imidazo[1,2-b]pyridazin-6-yl)piperazin-1-yl)methanone]: the IC50 at AAK1 [1] was at most 100 nM; at AAK1 [2] it was at most 10 nM.
